Patent US20200261596A1, “Therapeutic Particles with Peptide Boronic Acid or Boronate Ester Compounds and Methods of Making and Using Same” (Pfizer Inc., priority 2016, published 2020)
In brackets after ≈: the same amount, converted by molar mass. Like-named read-outs stand apart in the source and are kept apart here.

Key:
Bortezomib solubility = format: physicochemical; conditions: read-out: BTZ solubility
[1] = Pharmacologic kinetic profile in rats (plasma levels by LCMS); format: in vivo, Sprague-Dawley rats; conditions: single intravenous dose of 0.1 mg/kg, FIG. 13A
Method: Rats (male Sprague Dawley, approximately 300 g with jugular cannulae are given a single intravenous dose of 0.1 mg/kg free drug or passively targeted nanoparticles (PTNP) encapsulating drug at time t=0. At various times after dosing, blood samples are collected from the jugular cannulae into tubes containing lithium heparin, and plasma is prepared. Plasma levels are determined by extraction of the drug from plasma followed by LCMS analysis.

solubility (Bortezomib solubility; 0.5% sodium cholate, 2% BA, 4% EA in water (water phase), aqueous with cosolvent or surfactant or cyclodextrin, Water phase: 0.5% sodium cholate, 2% BA, 4% EA in water): 1300 µg/mL (≈ 3.38 mM) | solubility (Bortezomib solubility; benzyl alcohol:ethyl acetate 21:79 (w/w %) (oil phase), organic solvent or mixture, Oil phase: Benzyl alcohol:Ethyl acetate (BA:EA = 21:79, w/w %)): > 93000 µg/mL | solubility (Bortezomib solubility; water (quench phase), water, Quench phase: water): 1100 µg/mL (≈ 2.86 mM) | circulation time / plasma clearance [1]: rapidly cleared from the plasma
SMILES: CC(C)C[C@H](NC(=O)[C@H](Cc1ccccc1)NC(=O)c1cnccn1)B(O)O [Bortezomib, bortezomib]
